One assay concerns the target NOX1-b (Homo sapiens, UniProt Q9Y5S8). To be noted: 1 μM added 30 minutes before the addition of cytochrome C; NOX1-b expressing NIH3T3 cells.
In assay [1] the test system is COX-2 mRNA in NOX1-b expressing cells. The conditions noted are these: final concentration of 1 μM, RT-PCR 3 hours thereafter; EtBr staining.
Method: Using the mRNA extraction method shown in Example 1, respective cDNA samples were prepared from the vacant vector expressing cells and NOX1-b expressing cells. By synthesizing probe primers coding for the COX-2-specific sequences represented by SEQ ID NO:9 and SEQ ID NO:10, an RT-PCT reaction of 94° C. for 1 minute and 45 cycles consisting of 94° C. for 10 seconds, 55° C. for 20 seconds and 72° C. for 30 seconds, was carried out on each of the vacant vector expressing cell- and NOX1-b expressing cells-derived samples using a DNA polymerase (r Taq DNA polymerase; mfd. by Toyobo).
Assay [2] has as its system TNF-α mRNA in NOX1-b expressing cells. The conditions noted are these: pretreated for 3 hours with 1 μM; RT-PCR, EtBr staining.
Method: On each of the cDNA samples prepared in Example 6 and using a DNA polymerase (r Taq DNA polymerase; mfd. by Toyobo), RT-PCR reaction of 94° C. for 1 minute, 45 cycles of consisting of 94° C. for 10 seconds and 55° C. for 20 seconds and 72° C. for 30 seconds, was carried out.

Consider 1 molecule from patent publication US20050124056A1, “Novel oxidase” (priority 2002, published 2005).

NOX1-b, sequence (Q9Y5S8 1-515 isoform Q9Y5S8-3): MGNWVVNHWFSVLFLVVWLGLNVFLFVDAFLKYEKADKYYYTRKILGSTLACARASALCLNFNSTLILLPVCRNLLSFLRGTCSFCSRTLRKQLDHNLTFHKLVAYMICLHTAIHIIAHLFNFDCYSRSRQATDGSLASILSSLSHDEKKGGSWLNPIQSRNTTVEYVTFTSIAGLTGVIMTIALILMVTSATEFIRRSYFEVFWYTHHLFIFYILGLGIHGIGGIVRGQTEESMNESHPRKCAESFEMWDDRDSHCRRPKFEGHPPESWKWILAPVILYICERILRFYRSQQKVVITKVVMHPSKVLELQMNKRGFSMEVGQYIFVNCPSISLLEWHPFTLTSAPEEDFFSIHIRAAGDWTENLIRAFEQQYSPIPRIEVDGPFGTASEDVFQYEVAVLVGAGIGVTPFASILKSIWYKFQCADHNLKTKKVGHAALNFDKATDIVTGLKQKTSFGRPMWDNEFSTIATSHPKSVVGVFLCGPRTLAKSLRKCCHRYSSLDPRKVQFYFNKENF
NOX1-b, sequence (Q61462 whole entry partner): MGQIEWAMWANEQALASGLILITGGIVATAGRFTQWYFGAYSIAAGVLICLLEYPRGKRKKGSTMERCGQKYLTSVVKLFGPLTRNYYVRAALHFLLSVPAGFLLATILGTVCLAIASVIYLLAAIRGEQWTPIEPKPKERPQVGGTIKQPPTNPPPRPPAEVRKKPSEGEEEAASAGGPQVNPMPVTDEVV

With `c1ccc2c(c1)[I+]c1ccccc1-2` [DPI, diphenylene iodonium chloride], on NOX1-b, the “ROS producing activity (absorbance at 550 nm, integrated values after 1 hour)” value is recorded as “considerably inhibited”. The “induction of COX-2 expression by NOX1-b expression” value in assay [1] was “inhibited”. In addition, the “induction of TNF-α expression in NOX1-b expressing cells” value in assay [2] was “inhibited”.
